From patent US10265298B2, “Method of increasing the bioavailability of silybin” (Macau University of Science and Technology, priority 2017, dated 2019)

What was measured:
[1] = tested on: MDCKII-WT cells; format: in vitro ADME, canine; conditions: for mean net efflux ratio: MDCK
Protocol: (§1) In all cases, each determination was performed in triplicate.
(§2) 1.5 Preparation of Rat Sandwich-Cultured Hepatocytes

[2] = target: MDR1 (P-gp) (Homo sapiens, UniProt P08183); assay: Transport of silybin across MDCKII-MDR1 cells; conditions: for net efflux ratio: absence of any inhibitor
Sequence of MDR1 (P-gp) (P08183 whole entry): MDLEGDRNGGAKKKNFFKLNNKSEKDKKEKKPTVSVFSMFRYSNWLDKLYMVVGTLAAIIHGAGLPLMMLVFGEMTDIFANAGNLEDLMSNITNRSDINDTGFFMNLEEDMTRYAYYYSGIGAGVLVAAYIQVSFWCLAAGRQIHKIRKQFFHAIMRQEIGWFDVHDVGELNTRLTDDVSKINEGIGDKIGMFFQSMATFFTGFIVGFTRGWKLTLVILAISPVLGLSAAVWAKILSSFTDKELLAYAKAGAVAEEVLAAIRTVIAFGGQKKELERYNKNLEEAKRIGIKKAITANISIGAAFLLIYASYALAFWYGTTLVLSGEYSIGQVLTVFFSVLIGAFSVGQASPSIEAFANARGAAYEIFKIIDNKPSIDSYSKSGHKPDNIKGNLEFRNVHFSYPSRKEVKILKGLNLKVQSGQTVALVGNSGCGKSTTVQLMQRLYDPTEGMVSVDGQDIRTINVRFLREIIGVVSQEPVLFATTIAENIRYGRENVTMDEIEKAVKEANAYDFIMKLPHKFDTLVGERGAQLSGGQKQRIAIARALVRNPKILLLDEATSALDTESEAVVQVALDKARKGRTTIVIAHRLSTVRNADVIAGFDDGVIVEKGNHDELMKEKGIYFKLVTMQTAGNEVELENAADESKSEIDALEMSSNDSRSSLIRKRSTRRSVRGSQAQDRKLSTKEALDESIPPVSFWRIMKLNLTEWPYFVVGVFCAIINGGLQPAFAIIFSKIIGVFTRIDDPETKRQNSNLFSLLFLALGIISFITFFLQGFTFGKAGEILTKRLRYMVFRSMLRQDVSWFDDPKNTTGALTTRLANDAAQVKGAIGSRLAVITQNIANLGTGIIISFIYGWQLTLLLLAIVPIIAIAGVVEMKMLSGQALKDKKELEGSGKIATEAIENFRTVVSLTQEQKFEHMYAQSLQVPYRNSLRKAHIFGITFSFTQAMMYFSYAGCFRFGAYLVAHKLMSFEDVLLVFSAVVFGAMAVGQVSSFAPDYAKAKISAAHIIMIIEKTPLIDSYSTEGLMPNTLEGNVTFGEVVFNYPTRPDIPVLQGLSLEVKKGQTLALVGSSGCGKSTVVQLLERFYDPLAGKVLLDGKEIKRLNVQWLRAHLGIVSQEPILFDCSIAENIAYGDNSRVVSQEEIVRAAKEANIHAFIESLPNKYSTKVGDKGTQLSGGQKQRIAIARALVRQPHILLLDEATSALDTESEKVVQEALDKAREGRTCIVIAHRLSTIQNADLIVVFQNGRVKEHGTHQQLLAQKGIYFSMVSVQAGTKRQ
Protocol: Parental Madin-Darby canine kidney II (MDCKII), multi-drug resistance gene 1-Madin-Darby canine kidney II (MDR1-MDCKII), breast cancer resistance protein-Madin-Darby canine kidney II (BCRP-MDCKII), and multi-drug resistance protein 2-Madin-Darby canine kidney II (MRP2-MDCKII) cells were kindly provided by the Netherlands Cancer Institute (Amsterdam, Netherlands) and frozen at −80° C. The MDCKII cells were cultured at 37° C./5% CO2 in Dulbecco's modified Eagle's medium supplemented with 10% fetal bovine serum, 1% nonessential amino acids, and 2% penicillin-streptomycin. The cells were seeded on transwell inserts (Corning Inc.) at a density of 2.0×10^5 cells/cm^2 and grown for 4-5 days to form confluent monolayers. […]
Bidirectional transport assays in human colorectal adenocarcinoma 2 (Caco-2) and Madin-Darby canine kidney II (MDCK II) was carried out by dosing substrates in assay buffer to either the apical chamber (A-to-B) or the basolateral chamber (B-to-A); cells were then incubated at 37° C. with shaking at 50 rotations per minute (rpm), and 100 μl samples were collected at 30, 60, 90, 120 and 180 minutes from the basolateral chamber to study the drug transport of AP to BL, or apical chamber to study the drug transport of BL to AP. […] For fluorescence intensity detection, samples collected from AP or BL side were immediately detected in 96 well black plate by Microplate ultraviolet-visible spectroscopy (UV/VIS) spectrophotometer (TECAN infinite M200 PRO, Männedorf, Switzerland). […]
The apparent permeability coefficients (Papp) were calculated as Papp=dQ/dt×1/(C“0”A) where dQ/dt (mM/sec) is the rate of permeation of the drug across the cells, C0 (millimolar (mM)) is the donor compartment concentration at time zero and A (cm^2) is the area of the cell monolayer. […] Efflux Ratio (ER)=Papp (B to A)/Papp (A to B), while Papp (B−A) is the Papp value measured in the B to A direction, and Papp (A−B) is the Papp value measured in the A to B direction. […]

[3] = tested on: rat sandwich-cultured hepatocytes; assay: in vitro; format: in vitro ADME
Protocol: Sandwich-cultured rat hepatocytes (SCHs) were established according to previously described methods with minor modifications. Primary rat hepatocytes were isolated from male Sprague Dawley® (SD) rats (220-270 g) using a collagenase perfusion as described previously and plated at a density of 7.4×10^5 cells/2 ml/well onto six-well BioCoat plates. Approximately 24 hours later, hepatocytes were overlaid with 2 ml of 0.25 mg/ml BD Matrigel basement membrane matrix in Dulbecco's modified Eagle medium (DMEM) containing 1% volume by volume percentage (v/v) insulin/transferrin/selenium culture supplement, […] dexamethasone, 2 mM L-glutamine, 1% (v/v) minimum essential medium nonessential amino acids, 1% penicillin-streptomycin. Hepatocytes were cultured for 4 days to allow extensive formation of canalicular networks between cells before experimentation and the medium was changed daily.
Sandwich-cultured hepatocytes (SCHs) were pre-incubated in 2 milliliters (ml) of warm Hank's Balanced Salt Solution (HBSS) with or without Ca^2+ at 37° C. for 15 minutes; the tight junctions of the bile canaliculi open temporally after exposure to HBSS without Ca^2+. Subsequently, cells were incubated at 37° C. for 20 minutes with 1.5 ml of standard HBSS containing silybin (10 μM), or MK 571 (50 μM) as a positive control, or baicalein (25, 15.8, 5, 1.58, 0.5, 0.16 μM), or tangeretin (25, 15.8, 5, 1.58, 0.5 μM). After 20 min, cells were washed three times with ice-cold standard HBSS. The cell samples were lysed by sonication in 1 ml of water for 5 seconds with the ultrasonic cell disruption system (SONICS & […], INC., Newtown, Conn., USA). Conjugated silybin and unconjugated (free) silybin were quantified by high-performance liquid chromatography-tandem mass spectrometry (HPLC-MS/MS). Transport function was normalized to the protein content of the hepatocytes which was evaluated by bicinchoninic acid (BCA) protein assay (Pierce Chemical, Rockford, Ill.). The biliary excretion index (BEI; %) and in vitro biliary clearance (Clbiliary; ml/min/kg) were calculated by using B-CLEAR technology (Qualyst, Inc., Research Triangle Park, N.C.) based on the following equations: […]

[4] = target: T1, BCRP (Homo sapiens, UniProt Q9UNQ0); assay: Transport of silybin across MDCKII-BCRP cells; format: in vitro ADME; design: host or cells: MDCKII (Madin-Darby canine kidney II)
T1 sequence (Q9UNQ0 1-655): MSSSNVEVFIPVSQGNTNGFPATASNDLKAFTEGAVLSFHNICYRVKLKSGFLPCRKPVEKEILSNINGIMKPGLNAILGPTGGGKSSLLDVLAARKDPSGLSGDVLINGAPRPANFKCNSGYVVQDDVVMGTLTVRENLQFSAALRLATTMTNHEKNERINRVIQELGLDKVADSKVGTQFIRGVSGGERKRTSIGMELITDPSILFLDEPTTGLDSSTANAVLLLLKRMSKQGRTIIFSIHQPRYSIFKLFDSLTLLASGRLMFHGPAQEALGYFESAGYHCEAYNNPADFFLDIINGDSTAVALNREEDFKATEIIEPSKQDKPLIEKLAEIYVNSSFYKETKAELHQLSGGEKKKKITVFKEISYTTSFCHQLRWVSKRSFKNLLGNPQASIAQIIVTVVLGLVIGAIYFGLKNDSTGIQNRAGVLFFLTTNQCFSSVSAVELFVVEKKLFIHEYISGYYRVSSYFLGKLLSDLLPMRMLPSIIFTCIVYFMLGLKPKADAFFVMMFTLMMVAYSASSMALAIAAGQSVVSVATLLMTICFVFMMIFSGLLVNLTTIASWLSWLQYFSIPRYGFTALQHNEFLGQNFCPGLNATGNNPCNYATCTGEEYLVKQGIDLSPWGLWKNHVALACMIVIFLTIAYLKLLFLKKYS
Protocol: as §1, §2

mean net efflux ratio [1] | net efflux ratio [2] | mean BEI (biliary excretion index), free silybin [3] [%] | intrinsic biliary clearance ([3]; rat, hepatocytes) | net efflux ratio [4] | Compound | other results
1.01 | 1.39 | 35±4 | 2.1±0.2 μl/(min·mg protein) | 2.96 | COc1cc([C@H]2Oc3cc([C@H]4Oc5cc(O)cc(O)c5C(=O)[C@@H]4O)ccc3O[C@@H]2CO)ccc1O [silybin A] | –
– | – | – | – | – | COc1ccc(-c2cc(=O)c3c(OC)c(OC)c(OC)c(OC)c3o2)cc1 [tangeretin] | effect on biliary clearance of silybin ([3]; rat, hepatocytes): inhibited the biliary clearance of silybin
– | – | – | – | – | COc1cc(C2Oc3cc([C@H]4Oc5cc(O)cc(O)c5C(=O)[C@@H]4O)ccc3OC2CO)ccc1O (stereo partly drawn) [silybin] | permeability of silybin in absence or presence of P-gp, MRP and BCRP efflux inhibitors ([1]; Caco-2): no significant difference; MDR1 (P-gp) substrate status ([2]; dog, MDCK-MDR1, 180 min, 10 µM): is not a substrate for MDR1 (P-gp) efflux transporter; BCRP substrate status ([4]; dog, 180 min, 10 µM): is a substrate for both MRP2 and BCRP efflux proteins
0.99 | 1.20 | 33±1 | 2.5±0.4 μl/(min·mg protein) | 3.04 | COc1cc([C@@H]2Oc3cc([C@H]4Oc5cc(O)cc(O)c5C(=O)[C@@H]4O)ccc3O[C@H]2CO)ccc1O [silybin B] | –
– | – | – | – | – | O=c1cc(-c2ccccc2)oc2cc(O)c(O)c(O)c12 [baicalein] | reduction of biliary excretion of silybin ([3]; baicalein at 25 μM, silybin 10 μM): ~75%
